Like-named read-outs stand apart in the source and are kept apart here.
Key:
[1] = target: T1, HCV NS3/4A protease complex, BMS strain (UniProt P27958, C1454S/C1711G, species not given); assay: FRET peptide assay to monitor HCV NS3/4A proteolytic activity (BMS strain); type: biochemical, HCV genotype 1a; conditions: read-out: IC50 Range, HCV NS3/4A enzyme assay
T1 construct: other: HCV NS3/4A enzyme assay; class symbols; numeric values; fused on or other part: three-lysine solubilising tail at the C-terminus of NS4A; purified on Ni-NTA from the pET21b vector (His tag implied)
Summary of the method: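 Recombinant HCV NS3/4A protease complex (BMS strain, genotype 1a), 2-3 nM final (300 pM with 50 μg/ml BSA for very potent compounds), incubated with RET S1 EDANS/DABCYL depsipeptide substrate at 2 μM final. Buffer: 50 mM HEPES pH 7.5, 0.15 M NaCl, 0.1% Triton, 15% glycerol, 10 mM βME. Cleavage followed in real time by fluorescence.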

[2] = test system: HCV replicon in HUH-7 cells; assay: HCV replicon FRET assay; type: cell-based, HCV strain 1b; conditions: Hepatitis C virus
Excerpt: An HCV replicon whole cell system was established as described by Lohmann V, Korner F, Koch J, Herian U, Theilmann L, Bartenschlager R., Science 285(5424):110-3 (1999). This system enabled us to evaluate the effects of our HCV Protease compounds on HCV RNA replication. Briefly, using the HCV strain 1b sequence described in the Lohmann paper (Assession number:AJ238799), an HCV cDNA was synthesized by Operon Technologies, Inc. (Alameda, Calif.), and the full-length replicon was then assembled in plasmid pGem9zf(+) (Promega, Madison, Wis.) using standard molecular biology techniques. The replicon consists of (i) the HCV 5′ UTR fused to the first 12 amino acids of the capsid protein, (ii) the neomycin phosphotransferase gene (neo), (iii) the IRES from encephalomyocarditis virus (EMCV), and (iv) HCV NS3 to NS5B genes and the HCV 3′ UTR. Plasmid DNAs were linearized with ScaI and RNA transcripts were synthesized in vitro using the T7 MegaScript transcription kit (Ambion, Austin, Tex.) according to manufacturer's directions. In vitro transcripts of the eDNA were transfected into the human hepatoma cell line, HUH-7. […] Resulting cell lines were characterized for positive and negative strand RNA production and protein production over time.
The HCV replicon FRET assay was developed to monitor the inhibitory effects of compounds described in the disclosure on HCV viral replication. HUH-7 cells, constitutively expressing the HCV replicon, were grown in Dulbecco's Modified Eagle Media (DMEM) (Gibco-BRL) containing 10% Fetal calf serum (FCS) (Sigma) and 1 mg/ml G418 (Gibco-BRL). Cells were seeded the night before (1.5×10^4 cells/well) in 96-well tissue-culture sterile plates. Compound and no compound controls were prepared in DMEM containing 4% FCS, 1:100 Penicillin/Streptomysin (Gibco-BRL), 1:100 L-glutamine and 5% DMSO in the dilution plate (0.5% DMSO final concentration in the assay). Compound/DMSO mixes were added to the cells and incubated for 4 days at 37° C. After 4 days, cells were first assessed for cytotoxicity using alamar Blue (Trek Diagnotstic Systems) for a CC50 reading. The toxicity of compound (CC50) was determined by adding 1/10th volume of alamar Blue to the media incubating the cells. After 4 h, the fluorescence signal from each well was read, with an excitation wavelength at 530 nm and an emission wavelength of 580 nm, using the Cytofluor Series 4000 (Perspective Biosystems). Plates were then rinsed thoroughly with Phosphate-Buffered Saline (PBS) (3 times 150 μl).

[3] = Huh-7, HCV replicon cell assay, numeric values, read-out: EC50 Range

Row | Structure (SMILES) | IC50 ([1]; class symbols) | EC50 ([2]; Huh-7, read-out: EC50 Range) | IC50 ([1]; numeric values) | EC50 [2, 3]
1 | C=C[C@@H]1C[C@]1(NC(=O)[C@@H]1C[C@@H](Oc2ncc(OC)c3ccc(Cl)cc23)CN1C(=O)[C@@H](Nc1nc(-c2ccc(Cl)c(Cl)c2)cs1)C(C)(C)C)C(=O)NS(=O)(=O)C1CC1 [Example 29] | 1 to 20 nM | 1 to 50 nM | – | –
2 | C=C[C@@H]1C[C@]1(NC(=O)[C@@H]1C[C@@H](Oc2ncc(OC)c3ccc(Cl)cc23)CN1C(=O)[C@@H](Nc1nc(-c2cc(OC)ccc2OC)cs1)C(C)(C)C)C(=O)NS(=O)(=O)C1CC1 [Example 30] | 1 to 20 nM | 1 to 50 nM | – | –
3 | C=C[C@@H]1C[C@]1(NC(=O)[C@@H]1C[C@@H](Oc2ncc(OC)c3ccc(Cl)cc23)CN1C(=O)[C@@H](Nc1nc(-c2ccc(Br)cc2)cs1)C(C)(C)C)C(=O)NS(=O)(=O)C1CC1 [Example 31] | 1 to 20 nM | 1 to 50 nM | – | –
4 | C=C[C@@H]1C[C@]1(NC(=O)[C@@H]1C[C@@H](Oc2ncc(OC)c3ccc(Cl)cc23)CN1C(=O)[C@@H](Nc1nc(-c2ccc(F)cc2)cs1)C(C)(C)C)C(=O)NS(=O)(=O)C1CC1 [Example 32] | 1 to 20 nM | 1 to 50 nM | – | –
5 | C=C[C@@H]1C[C@]1(NC(=O)[C@@H]1C[C@@H](Oc2ncc(OC)c3ccc(Cl)cc23)CN1C(=O)[C@@H](Nc1nc(-c2ccccc2OC)cs1)C(C)(C)C)C(=O)NS(=O)(=O)C1CC1 [Example 33] | – | – | 9 nM | 6.84 nM
6 | C=C[C@@H]1C[C@]1(NC(=O)[C@@H]1C[C@@H](Oc2ncc(OC)c3ccc(Cl)cc23)CN1C(=O)[C@@H](Nc1nc(-c2ccc(C)cc2C)cs1)C(C)(C)C)C(=O)NS(=O)(=O)C1CC1 [Example 34] | 1 to 20 nM | 1 to 50 nM | – | –
7 | C=C[C@@H]1C[C@]1(NC(=O)[C@@H]1C[C@@H](Oc2ncc(OC)c3ccc(Cl)cc23)CN1C(=O)[C@@H](Nc1nc(-c2cccc(OC)c2)cs1)C(C)(C)C)C(=O)NS(=O)(=O)C1CC1 [Example 35] | 1 to 20 nM | 1 to 50 nM | – | –
8 | C=C[C@@H]1C[C@]1(NC(=O)[C@@H]1C[C@@H](Oc2ncc(OC)c3ccc(Cl)cc23)CN1C(=O)[C@@H](Nc1nc(-c2ccc3c(c2)OCCO3)cs1)C(C)(C)C)C(=O)NS(=O)(=O)C1CC1 [Example 36] | 1 to 20 nM | 1 to 50 nM | – | –
9 | C=C[C@@H]1C[C@]1(NC(=O)[C@@H]1C[C@@H](Oc2ncc(OC)c3ccc(Cl)cc23)CN1C(=O)[C@@H](Nc1nc(-c2ccc(Cl)cc2Cl)cs1)C(C)(C)C)C(=O)NS(=O)(=O)C1CC1 [Example 37] | 20 to 200 nM | 1 to 50 nM | – | –
10 | C=C[C@@H]1C[C@]1(NC(=O)[C@@H]1C[C@@H](Oc2ncc(OC)c3ccc(Cl)cc23)CN1C(=O)[C@@H](Nc1nc(-c2ccc(Cl)cc2)cs1)C(C)(C)C)C(=O)NS(=O)(=O)C1CC1 [Example 38] | 1 to 20 nM | 1 to 50 nM | – | –
11 | C=C[C@@H]1C[C@]1(NC(=O)[C@@H]1C[C@@H](Oc2ncc(OC)c3ccc(Cl)cc23)CN1C(=O)[C@@H](Nc1nc(-c2ccccc2F)cs1)C(C)(C)C)C(=O)NS(=O)(=O)C1CC1 [Example 39] | 1 to 20 nM | 1 to 50 nM | – | –
12 | C=C[C@@H]1C[C@]1(NC(=O)[C@@H]1C[C@@H](Oc2ncc(OC)c3ccc(Cl)cc23)CN1C(=O)[C@@H](Nc1nc(-c2ccc3c(c2)OCO3)cs1)C(C)(C)C)C(=O)NS(=O)(=O)C1CC1 [Example 40] | 1 to 20 nM | 1 to 50 nM | – | –
13 | C=C[C@@H]1C[C@]1(NC(=O)[C@@H]1C[C@@H](Oc2ncc(OC)c3ccc(Cl)cc23)CN1C(=O)[C@@H](Nc1nc(-c2ccc(N3CCOCC3)cc2)cs1)C(C)(C)C)C(=O)NS(=O)(=O)C1CC1 [Example 41] | 1 to 20 nM | 1 to 50 nM | – | –
14 | C=C[C@@H]1C[C@]1(NC(=O)[C@@H]1CC(Oc2ncc(OC)c3ccc(Cl)cc23)CN1C(=O)[C@@H](Nc1nc(-c2nc3ccccc3n2C)cs1)C(C)(C)C)C(=O)NS(=O)(=O)C1CC1 (stereo partly shown) [Example 42] | 1 to 20 nM | 1 to 50 nM | – | –
15 | C=C[C@@H]1C[C@]1(NC(=O)[C@@H]1C[C@@H](Oc2ncc(OC)c3ccc(Cl)cc23)CN1C(=O)[C@@H](Nc1nc(-c2cccc(F)c2)cs1)C(C)(C)C)C(=O)NS(=O)(=O)C1CC1 [Example 43] | 1 to 20 nM | 1 to 50 nM | – | –
16 | C=C[C@@H]1C[C@]1(NC(=O)[C@@H]1C[C@@H](Oc2ncc(OC)c3ccc(Cl)cc23)CN1C(=O)[C@@H](Nc1nc(-c2ccc(N(CC)CC)cc2)cs1)C(C)(C)C)C(=O)NS(=O)(=O)C1CC1 [Example 44] | 1 to 20 nM | 1 to 50 nM | – | –
17 | C=C[C@@H]1C[C@]1(NC(=O)[C@@H]1C[C@@H](Oc2ncc(OC)c3ccc(Cl)cc23)CN1C(=O)[C@@H](Nc1nc(-c2ccccc2)c(-c2ccccc2)s1)C(C)(C)C)C(=O)NS(=O)(=O)C1CC1 [Example 45] | 1 to 20 nM | 1 to 50 nM | – | –
18 | C=C[C@@H]1C[C@]1(NC(=O)[C@@H]1C[C@@H](Oc2ncc(OC)c3ccc(Cl)cc23)CN1C(=O)[C@@H](Nc1nc(-c2ccc(C(=O)O)cc2)cs1)C(C)(C)C)C(=O)NS(=O)(=O)C1CC1 [Example 46] | 1 to 20 nM | 1 to 50 nM | – | –
19 | C=C[C@@H]1C[C@]1(NC(=O)[C@@H]1C[C@@H](Oc2ncc(OC)c3ccc(Cl)cc23)CN1C(=O)[C@@H](Nc1nc(-c2c(F)c(F)c(F)c(F)c2F)cs1)C(C)(C)C)C(=O)NS(=O)(=O)C1CC1 [Example 47] | 1 to 20 nM | 1 to 50 nM | – | –
20 | C=C[C@@H]1C[C@]1(NC(=O)[C@@H]1C[C@@H](Oc2ncc(OC)c3ccc(Cl)cc23)CN1C(=O)[C@@H](Nc1nc(-c2cccc(Cl)c2)cs1)C(C)(C)C)C(=O)NS(=O)(=O)C1CC1 [Example 48] | 1 to 20 nM | 1 to 50 nM | – | –
21 | C=C[C@@H]1C[C@]1(NC(=O)[C@@H]1C[C@@H](Oc2ncc(OC)c3ccc(Cl)cc23)CN1C(=O)[C@@H](Nc1nc(-c2ccccc2Cl)cs1)C(C)(C)C)C(=O)NS(=O)(=O)C1CC1 [Example 49] | 1 to 20 nM | 1 to 50 nM | – | –
22 | C=C[C@@H]1C[C@]1(NC(=O)[C@@H]1C[C@@H](Oc2ncc(OC)c3ccc(Cl)cc23)CN1C(=O)[C@@H](Nc1nc(-c2ccccc2O)cs1)C(C)(C)C)C(=O)NS(=O)(=O)C1CC1 [Example 50] | – | – | 39 nM | 18.9 nM
23 | C=C[C@@H]1C[C@]1(NC(=O)[C@@H]1C[C@@H](Oc2ncc(OC)c3ccc(Cl)cc23)CN1C(=O)[C@@H](Nc1nc(-c2ccc(OC)cc2F)cs1)C(C)(C)C)C(=O)NS(=O)(=O)C1CC1 [Example 51] | 1 to 20 nM | 1 to 50 nM | – | –
24 | C=C[C@@H]1C[C@]1(NC(=O)[C@@H]1C[C@@H](Oc2ncc(OC)c3ccc(Cl)cc23)CN1C(=O)[C@@H](Nc1nc(-c2ccc(F)c(Cl)c2)cs1)C(C)(C)C)C(=O)NS(=O)(=O)C1CC1 [Example 52] | 1 to 20 nM | 1 to 50 nM | – | –
25 | C=C[C@@H]1C[C@]1(NC(=O)[C@@H]1C[C@@H](Oc2ncc(OC)c3ccc(Cl)cc23)CN1C(=O)[C@@H](Nc1nc(-c2cc(Cl)cc(Cl)c2F)cs1)C(C)(C)C)C(=O)NS(=O)(=O)C1CC1 [Example 53] | – | – | 17 nM | 20.3 nM
26 | C=C[C@@H]1C[C@]1(NC(=O)[C@@H]1C[C@@H](Oc2ncc(OC)c3ccc(Cl)cc23)CN1C(=O)[C@@H](Nc1nc(-c2cc(C)ccc2OC)cs1)C(C)(C)C)C(=O)NS(=O)(=O)C1CC1 [Example 54] | 1 to 20 nM | 1 to 50 nM | – | –
27 | C=C[C@@H]1C[C@]1(NC(=O)[C@@H]1C[C@@H](Oc2ncc(OC)c3ccc(Cl)cc23)CN1C(=O)[C@@H](Nc1nc(-c2cc(Cl)cc(Cl)c2OC)cs1)C(C)(C)C)C(=O)NS(=O)(=O)C1CC1 [Example 55] | 1 to 20 nM | 1 to 50 nM | – | –
28 | C=C[C@@H]1C[C@]1(NC(=O)[C@@H]1C[C@@H](Oc2ncc(OC)c3ccc(Cl)cc23)CN1C(=O)[C@@H](Nc1nc(-c2cc(F)ccc2OC)cs1)C(C)(C)C)C(=O)NS(=O)(=O)C1CC1 [Example 56] | 1 to 20 nM | 1 to 50 nM | – | –
29 | C=C[C@@H]1C[C@]1(NC(=O)[C@@H]1C[C@@H](Oc2ncc(OC)c3ccc(Cl)cc23)CN1C(=O)[C@@H](Nc1nc(-c2c(Cl)cccc2Cl)cs1)C(C)(C)C)C(=O)NS(=O)(=O)C1CC1 [Example 57] | 1 to 20 nM | 1 to 50 nM | – | –
